# Results published in ChEMBL document CHEMBL1133309, “Computational binding studies of human pp60c-src SH2 domain with a series of nonpeptide, phosphophenyl-containing ligands” (Bioorg Med Chem Lett, 2000).
# Target: Proto-oncogene tyrosine-protein kinase Src (Homo sapiens, UniProt P12931)
# Assay: Binding affinity for Human pp60c-src SH2 domain
# Proto-oncogene tyrosine-protein kinase Src, sequence (P12931 2-536 limits assumed): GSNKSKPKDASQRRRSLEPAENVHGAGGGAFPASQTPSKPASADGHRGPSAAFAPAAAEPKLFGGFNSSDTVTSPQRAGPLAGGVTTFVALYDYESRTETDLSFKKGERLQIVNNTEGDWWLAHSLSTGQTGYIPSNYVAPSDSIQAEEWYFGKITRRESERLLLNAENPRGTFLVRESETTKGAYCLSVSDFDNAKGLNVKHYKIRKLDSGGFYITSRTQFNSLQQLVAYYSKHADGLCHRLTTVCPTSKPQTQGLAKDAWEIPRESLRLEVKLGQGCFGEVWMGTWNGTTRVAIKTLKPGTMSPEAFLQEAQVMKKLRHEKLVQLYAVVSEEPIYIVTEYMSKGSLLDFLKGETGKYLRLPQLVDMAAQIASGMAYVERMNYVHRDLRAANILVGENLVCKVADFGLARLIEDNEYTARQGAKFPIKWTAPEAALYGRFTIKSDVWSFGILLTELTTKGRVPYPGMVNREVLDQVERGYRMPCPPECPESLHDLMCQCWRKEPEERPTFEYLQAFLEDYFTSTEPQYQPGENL
row,IC50 [µM],Structure (SMILES)
1,> 100,O=C(NCc1ccc(OCC2CCCCC2)cc1)c1ccc(OP(=O)(O)O)cc1
2,69,CC(=O)c1cc(CNC(=O)c2ccc(OP(=O)(O)O)cc2)ccc1OCC1CCCCC1
3,30,CNC(=O)c1cc(CNC(=O)c2ccc(OP(=O)(O)O)cc2)ccc1OCC1CCCCC1
